Numbered stars: 1 amine (or outer) side, 2 acyl side, 3 side chain; on linkers, the order of the positions; unused ones are H or OH. Square brackets hold non-standard residues; d marks the D form. Peptide text beside a SMILES is read from it. * marks the point of attachment. DOTA = O=C(O)CN1CCN(CC(=O)O)CCN(CC(=O)*)CCN(CC(=O)O)CC1; X1 = O=C(C1CSC(c2nc3ccc(N[*:1])cc3s2)=N1)[*:2]; X2 = N#Cc1ccc2cc(OCCCN*)ccc2n1; SEt = CCS*
How the values were obtained:
[1] = test system: HeLa cells; experiment: ICP-MS cellular uptake of Gd in HeLa cells; format: cell-based, human; conditions: 250 μM probe, 24 h
Procedure: The cellular uptake of Gd was studied by inductively-coupled plasma mass spectrometry (ICP-MS) analysis of the amount of Gd in viable and apoptotic cells after incubation with probe 15 (50-250 μM) for 24 h. […] This uptake enhancement was inhibitable by Z-VAD-fmk (50 μM), confirming the caspase-3-dependent accumulation of probe 15 in apoptotic cells.

[2] = target: T1, cathepsin B (Homo sapiens, UniProt P07858); experiment: T1 measurement of probe 15 with cathepsin B; format: biochemical; conditions: probe 208 μM, protease 50 nM, 1 T
T1 construct: Cathepsin B (human liver; 0.27 U; 7.35×10^−4 mg, Calbiochem); purchased Calbiochem; host or cells: human liver (tissue-derived)
Procedure: (§1) The enzyme specificity of probe 15 was studied by measuring the T1 value resulting from probe incubation (208 μM) with any of five relevant subcellular proteases (caspase-3, -7, -9, cathepsin B and legumain) in enzyme buffer. […] The reduced T1 value in solution was inhibited by the caspase inhibitor Z-VAD-fmk (50 μM).
Cathepsin B (human liver; 0.27 U; 7.35×10^−4 mg, Calbiochem) and Legumain (human, recombinant from mouse myeloma cell line; >250 pmol/min/μg; 7.35×10^−4 mg, R&D Systems) were conducted in reaction buffer with 50 mM sodium acetate, 50 mM NaCl, 0.5 mM EDTA and 10 mM TCEP at pH 5.5. The C-SNAF was diluted in the respective enzyme reaction buffer (25 μM, 1 mL) and remained at room temperature for 10 min, to which was added respective enzymes.

[3] = target: T2, caspase-9 (Homo sapiens, UniProt P55211); experiment: T1 measurement of probe 15 with caspase-9; format: biochemical; conditions: probe 208 μM, protease 50 nM, 1 T
T2 construct: purchased Calbiochem; host or cells: E. coli
Procedure: as §1
(§2) Caspase (human, recombinant from E. coli) assays were performed for caspase-3 (4.9×10^−3 U; 7.35×10^−4 mg, Sigma), −7 (18.3 U; 7.35×10^−4 mg, Calbiochem), and −9 (0.3 U; 7.35×10^−4 mg, Calbiochem). All caspase assays were conducted in caspase buffer with 50 mM HEPES, 100 mM NaCl, 1 mM EDTA, 10 mM TCEP, 10% glycerol, and 0.1% CHAPS at pH 7.4.

[4] = target: T3, caspase-3 (Homo sapiens, UniProt P42574); experiment: T1 measurement of probe 15 with caspase-3; format: biochemical; set-up: purchased Sigma; host or cells: E. coli; conditions: probe 200 μM
T3 sequence (P42574 29-175 limits assumed): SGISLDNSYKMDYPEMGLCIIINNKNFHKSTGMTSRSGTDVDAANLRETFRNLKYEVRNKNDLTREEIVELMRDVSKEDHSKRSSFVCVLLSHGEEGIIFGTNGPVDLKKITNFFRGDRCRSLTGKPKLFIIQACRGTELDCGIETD
T3 sequence (P42574 176-277 limits assumed): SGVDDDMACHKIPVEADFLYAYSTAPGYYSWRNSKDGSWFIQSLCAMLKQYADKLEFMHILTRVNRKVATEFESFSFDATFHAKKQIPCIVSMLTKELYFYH
Procedure: as §1, §2

[5] = Water proton r1 relaxivity measurement; format: physicochemical; conditions: 1 T
Procedure: Water proton r1 relaxivities of probe 15 and 1-ctrl (19) before and after caspase-3 incubation were then measured at 1, 1.5 and 3 T. For comparison, the isolated cyclized products 2-I and 2-II were also measured.
A series of solutions containing contrast agents with five different concentrations (0.05-0.5 mM) in Caspase buffer (pH 7.4) were treated with or without Casp-3 (50 nM) at 37° C. overnight. The solutions were placed in PCR tubes, bundled together, and MR-imaged at 1 T (Bruker Icon, Bruker BioSpin Corp.), […], 1.5 and 3 T (Signa HDx, GE Healthcare) at room temperature.
The scanning procedure began with a localizer and then consisted of a series of inversion-prepared fast spin echo scans, identical in all aspects (TR 8000 ms (6000 ms for Bruker Icon), TE minimum, field of view 6 cm, slice thickness 2 mm, matrix 128×128, NEX 1) except for the inversion time (TI) that was varied as: 4000, 2400, 1200, 800, 600, 400, 300, 200, 100, and 50 ms. For quantitative data analysis, the acquired MR images were transferred as DICOM images to an offline workstation, and signal intensities were extracted from each of the 5 samples at each of the 10 TI times by manual region of interest (ROI) placement and voxel averaging within the ROI.
Signal intensity versus TI relationships were fit to the following exponential T1 recovery model by non-linear least squares regression: SI (TI)=S0[1−2*exp(−TI/T1)+exp(−TR/T1)]. Relaxation rates (R1) were determined as 1/T1. Longitudinal relaxivities (r1, units of mM^−1s^−1) were calculated as the slope of R1 vs [Gd] after the determination of true Gd concentration of each sample by the ICP-MS measurement.

T2 sequence (P55211 1-315 limits assumed): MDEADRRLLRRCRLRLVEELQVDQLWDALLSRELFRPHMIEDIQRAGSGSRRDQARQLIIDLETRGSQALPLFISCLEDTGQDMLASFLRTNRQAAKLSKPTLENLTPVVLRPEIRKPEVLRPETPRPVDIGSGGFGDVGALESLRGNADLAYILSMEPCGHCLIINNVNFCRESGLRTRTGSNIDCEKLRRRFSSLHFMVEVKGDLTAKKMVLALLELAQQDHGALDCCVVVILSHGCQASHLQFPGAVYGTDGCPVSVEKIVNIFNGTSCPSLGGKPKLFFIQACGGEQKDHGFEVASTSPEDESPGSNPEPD

- T1 value after incubation with cathepsin B [2]: No reduced T1 value
- T1 value after incubation with caspase-9 [3]: No reduced T1 value
- lowest caspase-3 concentration detected by T1 value measurements [4]: 5 nM
- r1 after activation higher than Dotarem [5]: about 510%
- r1 after activation higher than before activation [5]: about 106%
- r1 relaxivity upon caspase-3 activation [5]: approximately 29.3 mM^−1 s^−1
- r1 relaxivity without caspase-3 activation [5]: 14.2 mM⁻¹ s⁻¹
- r1 after activation higher than before activation ([5]; listed as Gd-based MRI probe): 106%
- r1 relaxivity upon caspase-3 activation ([5]; listed as Gd-based MRI probe): 29.3 mM⁻¹ s⁻¹
Compound: CCSSCC(NC(=O)C(CC(=O)O)NC(=O)C(NC(=O)C(CCC(=O)O)NC(=O)C(CC(=O)O)NC(C)=O)C(C)C)C(=O)NC(CCCCNC(=O)CN1CCN(CC(=O)[O-])CCN(CC(=O)[O-])CCN(CC(=O)[O-])CC1)C(=O)Nc1ccc2nc(C3=NC(C(=O)NCCCOc4ccc5nc(C#N)ccc5c4)CS3)sc2c1.[Gd+3] (stereo not shown) [probe 15] (Ac-DEVDC(SEt)K(DOTA)[X1]-X2; configuration not given here)
- cellular uptake of Gd in STS-treated versus non-treated cells [1]: 6.6 fold

From patent publication US9642922B2, “Caspase-triggered nano-aggregation probes and methods of use” (The Board of Trustees of the Leland Stanford Junior …, priority 2013, dated 2017)
